Reference: patent US6949536B2, “Sulfonylbenzene compounds as anti-inflammatory/analgesic agents” (Pfizer, Inc., priority 1998, dated 2005)
Where a name gives a salt, the structure may show the parent alone.

Compound `CCOC(=O)c1cc(-c2ccc(-c3ccco3)cc2)n(-c2ccc(S(C)(=O)=O)c(F)c2)n1` [Example 126, Ethyl 1-[3-Fluoro-4-(methylsulfonyl)phenyl]-5-[4-(2-furyl)phenyl]-1H-pyrazole-3-carboxylate] has a melting point of 172 °C.
For `Cc1ccc(-c2ccc(S(C)(=O)=O)c(F)c2)n1-c1ccc(-c2ccoc2)cc1` [Example 36, 5-[3-Fluoro-4-(methylsulfonyl)phenyl]-1-[4-(3-furyl)phenyl]-2-methyl-1H-pyrrole], the melting point was 147 to 150 °C.
`COc1cc(-c2cc(C(F)(F)F)nn2-c2ccc(S(C)(=O)=O)cc2)ccc1-c1cocn1` (as salt: hydrochloride) [Example 111, 4-{2-Methoxy-4-[1-[4-(methylsulfonyl)phenyl]-3-(trifluoromethyl)-1H-pyrazol-5-yl]phenyl}-1,3-oxazole] gave a melting point of 171 to 173 °C.
Work on `Cc1cc(-c2cscn2)ccc1-c1cc(C(F)(F)F)nn1-c1ccc(S(C)(=O)=O)cc1` (as salt: methanesulfonate) [Example 186, 1-[4-(Methylsulfonyl)phenyl]-5-[2-methyl-4-(4-thiazolyl)phenyl]-3-trifluoromethyl-1H-pyrazole] yielded a melting point of 174.7 °C.
Compound `NS(=O)(=O)c1ccc(-n2nc(C(F)(F)F)cc2-c2ccc(-c3ccco3)cc2)c(Cl)c1` (as salt: hydrochloride) [Example 140, 3-Chloro-4-[5-[4-(2-furyl)phenyl]-3-(trifluoromethyl)-1H-pyrazol-1-yl]benzenesulfonamide] has a melting point of 190.3 °C.
In the case of `Cc1cc(-c2noc(C)c2-c2ccc(S(N)(=O)=O)c(F)c2)ccc1-c1cscn1` [Example 188, 2-Fluoro-4-[5-methyl-3-[3-methyl-4-(1,3-thiazol-4-yl)phenyl]-4-isoxazolyl]benzenesulfonamide], the melting point is reported as 114 to 116 °C.
Work on `CS(=O)(=O)c1ccc(-n2nc(C(F)(F)F)cc2-c2ccc(-c3cncs3)cc2)cc1` [Example 24, 1-[4-(Methylsulfonyl)phenyl]-5-[4-(5-thiazolyl)phenyl]-3-trifluoromethyl-1H-pyrazole] yielded a melting point of 169 to 170 °C.
`Cc1cc(-c2cc(C(F)(F)F)nn2-c2ccc(S(N)(=O)=O)c(F)c2)ccc1-c1cscn1` (as salt: hydrochloride) [Example 113, 2-Fluoro-4-[5-[3-methyl-4-(1,3-thiazol-4-yl)phenyl]-3-(trifluoromethyl)-1H-pyrazol-1-yl]benzenesulfonamide] showed a melting point of 125 to 127 °C.
`NS(=O)(=O)c1ccc(-n2nc(C(F)(F)F)cc2-c2ccc(-c3ccco3)cc2)c(F)c1` (as salt: hydrochloride) [Example 141, 3-Fluoro-4-[5-[4-(2-furyl)phenyl]-3-(trifluoromethyl)-1H-pyrazol-1-yl]benzenesulfonamide] showed a melting point of 174.4 °C.
